We go through 27 compounds from patent US10766869B2, “Triazoles for the treatment of demyelinating dieases” (Vertex Pharmaceuticals Incorporated, priority 2015, dated 2020).

Like-named read-outs stand apart in the source and are kept apart here.

The subject of this experiment is primary rat mixed cortical cells. Description: In vitro myelination assay (MBP positive myelin strands, fold myelin pixels above background). The class given is cell-based. The following applies: Rattus norvegicus; for fold induction at 1 µM: 1.0 μM compound; for fold induction at 10 µM: 10.0 μM compound. The essentials: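 P1 rat mixed cortical cultures (neurons, OPCs, oligodendrocytes, astrocytes, microglia) grown 14 days at 37 °C with compound, half-medium refreshed with compound on days 6 and 10. Fixed cells stained for MBP; MBP-positive myelin strand pixels per well quantified by automated imaging, reported as fold over no-compound baseline at 1.0 and 10.0 μM.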

The mark [1] stands for this setting: relative to baseline of no added compound, read-out: Fold myelin pixels above background, 1.0 μM.
The mark [2] stands for this setting: relative to baseline of no added compound, read-out: Fold myelin pixels above background, 10.0 μM.
Setting [3] is: read-out: Fold myelin pixels above background relative to baseline of no added compound.
Where [4] appears, read: relative to baseline of no added compound, read-out: Fold myelin pixels above background.

As to `Cc1cc(Nc2ncn(-c3cc(F)cc(F)c3)n2)cc(NC2CCN(C3COC3)CC2)c1` [Compound 38, N3-[1-(3,5-difluorophenyl)-1,2,4-triazol-3-yl]-5-methyl-N1-[1-(oxetan-3-yl)-4-piperidyl]benzene-1,3-diamine], the fold induction at 1 µM under setting [1] is 10 to 100. Further, the fold induction at 10 µM under setting [2] was in the range of 10 to 100.

For `Cc1cc(Nc2ncn(-c3ccc(C(F)(F)F)cc3)n2)cc(N2CCN(C3COC3)CC2)c1` [Compound 191], the fold induction at 1 µM under setting [1] is at most 1. Besides, the fold induction at 10 µM under setting [2] is 1 to 10.

As to `Cc1cc(Nc2ncn(-c3cc(F)cc(F)c3)n2)cc(NC2CN(C3COC3)C2)c1` [Compound 881, N3-[1-(3,5-difluorophenyl)-1,2,4-triazol-3-yl]-5-methyl-N1-[1-(oxetan-3-yl)azetidin-3-yl]benzene-1,3-diamine], under setting [3], the fold induction at 1 µM was in the range of 10 to 100 and the fold induction at 10 µM was at most 1.

Take `CC(C)Oc1cc(Nc2ncn(-c3cc(F)cc(F)c3)n2)cc(N2CC(N3CCOCC3)C2)c1` [Compound 830, 1-(3,5-difluorophenyl)-N-[3-isopropoxy-5-(3-morpholinoazetidin-1-yl)phenyl]-1,2,4-triazol-3-amine]: under setting [3], the fold induction at 1 µM was 100 to 1000 and the fold induction at 10 µM was in the range of 10 to 100.

For the compound `[2H]C1([2H])N(c2cc(C)cc(Nc3ncn(-c4cc(F)cc(F)c4)n3)c2)C([2H])([2H])C([2H])([2H])N(C2COC2)C1([2H])[2H]` [Compound 979, 1-(3,5-difluorophenyl)-N-[3-methyl-5-[2,2,3,3,5,5,6,6-octadeuterio-4-(oxetan-3-yl)piperazin-1-yl]phenyl]-1,2,4-triazol-3-amine], under setting [3], the fold induction at 1 µM fell in the range of 100 to 1000 and the fold induction at 10 µM was at most 1.

Turning to `Cc1cc(Nc2ncn(-c3ccc(F)c(F)c3)n2)cc(O[C@H]2CCCN(C3COC3)C2)c1` (single isomer, unassigned) [Compound 632], under setting [4], the fold induction at 1 µM was 10 to 100 and the fold induction at 10 µM was at most 1.

As to `Cc1cc(Nc2ncn(-c3cc(F)cc(F)c3)n2)cc(N2CCN(CC(C)(C)O)CC2C)c1` (stereo not drawn) [Compound 1024, 1-[4-[3-[[1-(3,5-difluorophenyl)-1,2,4-triazol-3-yl]amino]-5-methyl-phenyl]-3-methyl-piperazin-1-yl]-2-methyl-propan-2-ol], under setting [3], the fold induction at 1 µM was in the range of 10 to 100 and the fold induction at 10 µM was at most 1.

In the case of `[2H]C([2H])([2H])C([2H])(N1CCN(c2cc(C)cc(Nc3ncn(-c4ccccc4)n3)c2)CC1)C([2H])([2H])[2H]` [Compound 1086, N-[3-methyl-5-[4-[1,2,2,2-tetradeuterio-1-(trideuteriomethyl)ethyl]piperazin-1-yl]phenyl]-1-phenyl-1,2,4-triazol-3-amine], under setting [3], the fold induction at 1 µM fell in the range of 10 to 100 and the fold induction at 10 µM is at most 1.

For the compound `Fc1cc(F)cc(-n2cnc(Nc3cc(C(F)F)cc(N4CC(N5CCOCC5)C4)c3)n2)c1` [Compound 804, N-[3-(difluoromethyl)-5-(3-morpholinoazetidin-1-yl)phenyl]-1-(3,5-difluorophenyl)-1,2,4-triazol-3-amine], under setting [3], the fold induction at 1 µM was in the range of 10 to 100 and the fold induction at 10 µM is at most 1.

In the case of `Cc1cc(Nc2ncn(-c3cc(F)cc(F)c3)n2)cc(N2CCC(N3CCOCC3)CC2)c1` [Compound 324, 1-(3,5-difluorophenyl)-N-[3-methyl-5-(4-morpholino-1-piperidyl)phenyl]-1,2,4-triazol-3-amine], the fold induction at 1 µM under setting [1] was 1 to 10. For the same compound, under setting [2], the fold induction at 10 µM lay in the range of 10 to 100.

`Cc1cc(Nc2ncn(-c3cc(F)cc(F)c3)n2)cc(C2(F)CCN(C3COC3)CC2)c1` [Compound 515, 1-(3,5-difluorophenyl)-N-[3-[4-fluoro-1-(oxetan-3-yl)-4-piperidyl]-5-methyl-phenyl]-1,2,4-triazol-3-amine]: under setting [4], the fold induction at 1 µM is at most 1 and the fold induction at 10 µM lay within 1 to 10.

Take `Fc1ccc(-n2cnc(Nc3cc(F)cc(N4CCCC4)c3)n2)cc1` [Compound 167, 1-(4-fluorophenyl)-N-(3-fluoro-5-pyrrolidin-1-yl-phenyl)-1,2,4-triazol-3-amine]: under setting [1], the fold induction at 1 µM is at most 1. The fold induction at 10 µM under setting [2] is 100 to 1000.

As to `Cc1cc(Nc2ncn(-c3ccccc3)n2)cc(N2CCN(C)C(C)C2)c1` (stereo not drawn) [Compound 133, N-[3-(3,4-dimethylpiperazin-1-yl)-5-methyl-phenyl]-1-phenyl-1,2,4-triazol-3-amine], the fold induction at 1 µM under setting [1] lay in the range of 1000 to 10000. Besides, the fold induction at 10 µM under setting [2] is at most 1.

On to `Cc1cc(Nc2ncn(-c3cc(F)cc(F)c3)n2)cc([C@@]2(O)CCN(C3COC3)C2)c1` (single isomer, unassigned) [Compound 101], for which the fold induction at 1 µM under setting [1] fell in the range of 1000 to 10000. Under setting [2], the fold induction at 10 µM lay within 1 to 10.

With `CN1CCN(c2cc(F)cc(Nc3ncn(-c4ccc(F)cc4F)n3)c2)CC1` [Compound 450, 1-(2,4-difluorophenyl)-N-[3-fluoro-5-(4-methylpiperazin-1-yl)phenyl]-1,2,4-triazol-3-amine], under setting [4], the fold induction at 1 µM is at most 1 and the fold induction at 10 µM was at most 1.

Consider `Cc1cc(Nc2ncn(C)n2)cc(Nc2ncn(-c3ccccc3)n2)c1` [Compound 676, 5-methyl-N3-(1-methyl-1,2,4-triazol-3-yl)-N1-(1-phenyl-1,2,4-triazol-3-yl)benzene-1,3-diamine], for which, under setting [4], the fold induction at 1 µM lay in the range of 10 to 100 and the fold induction at 10 µM was at most 1.

As to `Cc1cc(Nc2ncn(-c3ccc(F)c(F)c3)n2)cc(N2CCOCC2)n1` [Compound 265, N-[1-(3,4-difluorophenyl)-1,2,4-triazol-3-yl]-2-methyl-6-morpholino-pyridin-4-amine], the fold induction at 1 µM under setting [1] fell in the range of 100 to 1000. In addition, the fold induction at 10 µM under setting [2] lay in the range of 100 to 1000.

Turning to `Cc1cc(Nc2ncn(-c3cc(F)cc(F)c3)n2)cc(N2CC(N3CCOC4(CC4)C3)C2)c1` [Compound 586, 1-(3,5-difluorophenyl)-N-[3-methyl-5-[3-(4-oxa-7-azaspiro[2.5]octan-7-yl)azetidin-1-yl]phenyl]-1,2,4-triazol-3-amine], under setting [4], the fold induction at 1 µM was 10 to 100 and the fold induction at 10 µM fell in the range of 10 to 100.

As for `Cc1cc(Nc2ncn(-c3cc(F)cc(F)c3)n2)cc(N2CCN(CCOC(C)C)CC2)c1` [Compound 1005, 1-(3,5-difluorophenyl)-N-[3-[4-(2-isopropoxyethyl)piperazin-1-yl]-5-methyl-phenyl]-1,2,4-triazol-3-amine], under setting [3], the fold induction at 1 µM lay in the range of 1 to 10 and the fold induction at 10 µM was at most 1.

As for `Cc1cc(Nc2ncn(-c3cc(F)cc(C(F)(F)F)c3)n2)cc(N2CCN(C3COC3)CC2)c1` [Compound 757, 1-[3-fluoro-5-(trifluoromethyl)phenyl]-N-[3-methyl-5-[4-(oxetan-3-yl)piperazin-1-yl]phenyl]-1,2,4-triazol-3-amine], under setting [4], the fold induction at 1 µM lay in the range of 10 to 100 and the fold induction at 10 µM lay in the range of 10 to 100.

Take `CC(=O)N1CCCC(Nc2cc(C)cc(Nc3ncn(-c4ccccc4)n3)c2)C1` (stereo not drawn) [Compound 115, 1-[3-[3-methyl-5-[(1-phenyl-1,2,4-triazol-3-yl)amino]anilino]-1-piperidyl]ethanone]: the fold induction at 1 µM under setting [1] was in the range of 100 to 1000. For the same compound, the fold induction at 10 µM under setting [2] lay within 100 to 1000.

Turning to `Cc1cc(Nc2ncn(-c3ccc(F)c(F)c3)n2)c(F)c(N2CCN(C3COC3)CC2)c1` [Compound 998, 1-(3,4-difluorophenyl)-N-[2-fluoro-5-methyl-3-[4-(oxetan-3-yl)piperazin-1-yl]phenyl]-1,2,4-triazol-3-amine], under setting [3], the fold induction at 1 µM lay in the range of 10 to 100 and the fold induction at 10 µM fell in the range of 1 to 10.

As for `Cc1cc(Nc2ncn(-c3cc(F)cc(F)c3)n2)cc([C@H]2CCN(C3COC3)C[C@@H]2O)c1` (racemic) [Compound 282, (3R,4R)-4-[3-[[1-(3,5-difluorophenyl)-1,2,4-triazol-3-yl]amino]-5-methyl-phenyl]-1-(oxetan-3-yl)piperidin-3-ol; (3S,4S)-4-[3-[[1-(3,5-difluorophenyl)-1,2,4-triazol-3-yl]amino]-5-methyl-phenyl]-1-(oxetan-3-yl)piperidin-3-ol], the fold induction at 1 µM under setting [1] is 10 to 100. The fold induction at 10 µM under setting [2] was 10 to 100.

With `COc1nccc(-n2cnc(Nc3cc(C4CC4)cc(N4CCN(C5COC5)CC4)c3)n2)n1` [Compound 277, N-[3-cyclopropyl-5-[4-(oxetan-3-yl)piperazin-1-yl]phenyl]-1-(2-methoxypyrimidin-4-yl)-1,2,4-triazol-3-amine], under setting [1], the fold induction at 1 µM was in the range of 10 to 100. Under setting [2], the fold induction at 10 µM lay in the range of 100 to 1000.

For the compound `Cc1cc(Nc2ncn(-c3ccc(F)c(F)c3)n2)cc(OCC2(C)COC2)c1` [Compound 615, 1-(3,4-difluorophenyl)-N-[3-methyl-5-[(3-methyloxetan-3-yl)methoxy]phenyl]-1,2,4-triazol-3-amine], under setting [4], the fold induction at 1 µM was 10 to 100 and the fold induction at 10 µM fell in the range of 10 to 100.

Take `CCc1cc(Nc2ncn(-c3cnccn3)n2)cc(N2CC(N3CCOCC3)C2)c1` [Compound 341, N-[3-ethyl-5-(3-morpholinoazetidin-1-yl)phenyl]-1-pyrazin-2-yl-1,2,4-triazol-3-amine]: the fold induction at 1 µM under setting [1] was at most 1. Moreover, the fold induction at 10 µM under setting [2] was 1 to 10.

As for `COC1CC(Nc2cc(C)cc(Nc3ncn(-c4cc(F)cc(F)c4)n3)c2)C1` (stereo not drawn) [Compound 520, N3-[1-(3,5-difluorophenyl)-1,2,4-triazol-3-yl]-N1-(3-methoxycyclobutyl)-5-methyl-benzene-1,3-diamine], under setting [4], the fold induction at 1 µM lay within 100 to 1000 and the fold induction at 10 µM is at most 1.
